According to patent US20240293537A1, “A[…]-GRAFTED LAURYL GAMMA-POL[…] USE THEREOF” (JIANGSU ACADEMY OF AGRICULTURAL SCIENCES, priority 2021, published 2024):

What was measured:
RAW 264.7 cells = system: RAW 264.7 cells
Protocol: After incubation for 24 h, the cells were pipetted, washed three times with PBS, centrifuged and finally resuspended in ice PBS before assay with flow cytometer (BD FACSCalibur flow cytometer).

Female Balb/c mice = details: as adjuvant with OVA, 200 μL/mouse, serum 28 days after inoculation
Protocol: In addition, 500 μg/mL of an OVA solution (abbreviated as OVA) was prepared by taking a PBS buffer with a pH of 7.4 as a solvent; 100 μg/mL of an FIP solution (abbreviated as FIP) was prepared by taking a PBS buffer with a pH of 7.4 as a solvent.
After inoculation, the skin condition of the injection site was observed over one week. Blood was collected from the orbit 28 days after inoculation, and sera were separated and the antibody titer was measured.
The antibody titer was measured by adopting the following method: 10 μg/mL of an OVA protein solution was prepared by taking 0.05 mol/L of a Na2CO3—NaHCO3 buffer with a pH of 9.6 as a solvent. […]

| Molecule | fluorescence of cells (uptake) (RAW 264.7 cells; RAW 264.7, 24 h, FIP 50 μg/mL) | fluorescence intensity of the cells with increase of FIP concentration (RAW 264.7 cells; RAW 264.7, different FIP concentrations) | IgG titer (OD450 nm) (Female Balb/c mice) | solubility in acidic aqueous solution (acidic aqueous solution with a pH≤6) | solubility in solvent phase (hot DMSO and DMF solutions) |
| --- | --- | --- | --- | --- | --- |
| fluorescein-labeled amphiphilic imiquimod-grafted lauryl γ-polyglutamate [FIP] | a distinct fluorescence peak could still be seen | gradually increased | 2.1 |  |  |
| CC(C)Cn1cnc2c(N)nc3ccccc3c21 [Vaccine R837, imiquimod] |  |  | 3.07 | can be dissolved | slightly soluble |
